{"source": "patent US20060148763A1", "about": "“Compounds and methods for regulating triglyceride levels” (priority 2005, published 2006)", "key": {"[1]": {"tested_on": "serum triglyceride levels", "assay": "Rabbit hypercholesteremic model (2% cholesterol diet, 7 weeks): serum triglycerides", "type": "in vivo, Male New Zealand white rabbits", "protocol": "The anti-atherogenic effects of P5P alone and in combination with simvastatin in a rabbit hypercholesteremic model were determined. The study compared the effects of P5P and simvastatin alone and in combination on atherosclerotic lesion formation, lipid profile (total cholesterol, LDL, HDL, triglycerides and oxidized LDL), homocysteine levels and various markers of inflammation (CRP, IL-1β, IL-6, IFN-γ and TNF-α).\nAnimals—Male New Zealand white rabbits 2.0-3.0 kg.\nAnimal Feed—The normocholesterol diet is Co-op Complete Rabbit Feed manufactured by Federated Co-operatives Limited (Saskatchewan). The 2% cholesterol diet is Test Diet 0009459 MRab/2% Chol 3/16 manufactured by Purina Mills (USA).\nThe rabbits were fed the normocholesterol and 2% cholesterol diet ad libitum. All animals received a timothy cube after blood sampling. […]\nGroup 3: Hypercholesterol diet+P5P 10 mg/kg/day\nGroup 4: Hypercholesterol diet+simvastatin 5 mg/kg/day\nGroup 5: Hypercholesterol diet+P5P 10 mg/kg/day+simvastatin 5 mg/kg/day\nThe rabbits were fed a normocholesterol or hypercholesterol diet for a total of 7 weeks. The normocholesterol rabbits were treated once per day with 1 ml of ethanol and 5 ml of RO water via a nasogastric tube. The hypercholesterol animals were treated once per day with either P5P (10 mg/kg), simvastatin (5 mg/kg) or a combination of P5P and simvastatin (P5P 10 mg/kg; simvastatin 5 mg/kg) via a nasogastric tube. The P5P was dissolved in 5 ml of 0.05 N NaOH so that the pH of the solution is approximately 7. The simvastatin was dissolved in 1 ml of anhydrous ethanol.\nFive ml of blood was collected from the marginal ear vein of the rabbits at 0, 2, 4 and 6 weeks. Prior to blood collection the animals were sedated with 1 mg/kg of acepromazine. Following collection, the serum was separated. The serum is aliquoted (500 μl) and frozen at −80° C. until used for the assaying various lipids (total cholesterol, LDL, HDL, triglycerides, oxidized LDL) and cytokines (CRP, IL-1β, IL-6, IFN-γ and TNF-α).\nAt 7 weeks, the animals were anesthetized and 10 ml of blood was collected. Then the animals were euthanized, and the heart and thoracic aorta removed. The hearts and aortas were frozen in liquid nitrogen or an ethanol dry ice bath and stored at −80° C. until analyzed.\nTest Articles—P5P (pyridoxal 5′-phosphate monohydrate) was purchased from Sigma (P82870). Simvastatin is obtained from ACIC Fine Chemicals Inc. Two test compound vials were provided for each animal for each day. The first vial (small) was diluted in 1 ml of anhydrous ethanol. The second vial was diluted in either 5 ml of RO water or 5 ml of 0.05 N NaOH. The diluent for each vial was clearly marked on the vial. The test solutions were prepared fresh each day just before they were administered to the animals. The stock P5P was stored in a refrigerator at 4° C. under low light conditions. The simvastatin was stored following the manufacture recommendations. The individual test vials were stored in a refrigerator at 4° C. under low light conditions.\nTest Article(s) Dose, Route of Administration and Duration—The rabbits were treated orally with the drugs, once per day for a total of 7 weeks. The contents of vial one (small; 1 ml) were given to the animals first, followed by the contents of vial 2 (large; 5 ml). The test compound treatments were followed by a 5 ml RO water chaser."}, "[2]": {"tested_on": "serum triglyceride levels", "assay": "14-week open-label forced dose-escalation study of P5P in hypertensive diabetic patients: triglyceride level", "type": "in vivo, human", "settings": "for Triglycerides, Percentage Difference: average Visit 12 vs Visit 1", "protocol": "Overview—The study was a 14-week, open-label, forced, dose-escalation study of the efficacy and safety of P5P administered once daily over a dose range of 250 mg to 750 mg, for the treatment of mild to moderate hypertension and hyperlipidemia, in patients with coexisting diabetes mellitus.\nPatient Definition—Patients meeting all of the inclusion criteria and none of the exclusion criteria were eligible for enrollment. The primary inclusion criteria were hypertension and diabetes. […] Other than having diabetes and hypertension, patients must have been in good health for their age. A history and physical examination must have been within age-related normal limits, or if abnormal, considered clinically insignificant in the opinion of the investigator. Laboratory tests (CBC with differential, prothrombin and partial thrombo-plastin times, platelet count, and urinalysis and blood chemistry panel), must have been normal, or if abnormal, considered clinically insignificant.\nExclusion criteria included the presence or history (past 12 months) of accelerated or malignant hypertension, as evidenced by hemorrhage and/or exudate, and/or papilloedema on funduscopic examination. Patients having a history of angioedema of the face, lips, tongue, glottis or larynx when treated with ACE inhibitors were excluded. Patients having a diastolic BP>114 mm Hg, and/or systolic BP>200 mm Hg at screening were excluded. Patients with similar readings at the end of the placebo lead-in period were dropped from further participation in the study. During the placebo lead-in period patients who had signs of bradycardia (<45 bpm) or a resting heart rate of >100 bpm were not advanced to the next stage of the study, but rather dropped from further participation.\nExclusion criteria included the presence or history (past 6 months) of myocardial infarction or cerebrovascular accident and clinically significant cardiac pathology such as congestive heart failure, cardio-genic shock, non-controlled arrhythmias, acute myocarditis or pericarditus, significant valvular or congestive heart disease and unstable angina pectoris; presence or evidence of atrioventricular block (second/third degree), or sick sinus syndrome, or any other conduction defect or abnormality including the presence/history of atrial fibrillation or flutter, associated with pre-excitation syndrome; clinically significant gastrointestinal disease, renal insufficiency (serum creatinine […]), hepatic disease, or electrolyte imbalance (serum potassium <3.5 or >5.3 mmol/L, serum sodium <136->145 mmol/L); presence of bronchial asthma or chronic obstructive pulmonary disease; or the presence of any clinically significant concomitant disease that in the opinion of the investigator could interfere with the patient's participation in the study, or confound the outcome variables. Patients having any clinically significant concomitant disease that could interfere with the patient's participation in the study, or confound the outcome variables were excluded. Patients with a history of alcohol abuse or illicit drug use in the 12 months prior to beginning this protocol were excluded. Patients with a terminal illness were excluded. Patients with an arm circumference >41 cm were excluded. Pregnant females, women who were breast-feeding or women of child-bearing potential must have used adequate contraception. Patients who have had therapy with an investigational compound within 30 days prior to entry into the study were excluded. The use of the following medications was cause for exclusion, each had to have been safely discontinued prior to the placebo lead-in phase of the study, and must been withheld until the protocol had been completed: all diuretics and antihypertensive drugs (including beta-blockers, calcium-channel blockers, vasodilators, ACE inhibitors), MAO inhibitors, all anti-arrhythmic drugs, digitalis, major tranquilizers, antidepressants, cimetidine, corticosteroids, and antineoplastics. […]"}, "[3]": {"settings": "hypercholesterol diet, n = 5, P5P 10 mg/kg/day, simvastatin 5 mg/kg/day oral"}, "[4]": {"settings": "rabbits fed the hypercholesterol diet, 7 weeks"}}, "note": "Values joined by “and” are separate entries in the source; they are usually repeats but may differ in a detail not shown here. Equal entries are not always repeated."}
{"smiles": "Cc1ncc(COP(=O)(O)O)c(C=O)c1O", "note": "[P5P, pyridoxal-5′-phosphate]", "values": [{"measurement": "average serum triglyceride levels as fraction of the levels observed in the control rabbits", "setting": "[1]; end of the 7 week study period", "value": "about ⅓"}, {"measurement": "Triglycerides, Week 2", "setting": "[1]; [3]", "value": 1.244, "unit": "mmol/L"}, {"measurement": "Triglycerides, Week 4", "setting": "[1]; [3]", "value": 1.530, "unit": "mmol/L"}, {"measurement": "Triglycerides, Week 6", "setting": "[1]; [3]", "value": 1.066, "unit": "mmol/L"}, {"measurement": "Triglycerides, Week 7", "setting": "[1]; hypercholesterol diet, n = 5, P5P 10 mg/kg/day, simvastatin 5 mg/kg/day oral, end of study", "value": 1.038, "unit": "mmol/L"}, {"measurement": "Triglycerides, Week 0", "setting": "[1]; hypercholesterol diet, n = 5, P5P 10 mg/kg/day, simvastatin 5 mg/kg/day oral, start of study", "value": 1.168, "unit": "mmol/L"}, {"measurement": "comparison of serum triglyceride reduction between treatments", "setting": "[1]; [4]", "value": "more effective than simvastatin treatment"}, {"measurement": "effect on serum triglyceride levels vs untreated control rabbits", "setting": "[1]; [4]", "value": "effective in reducing serum triglyceride levels"}, {"measurement": "Triglycerides, Percentage Difference", "setting": "[2]; Table 2", "value": "−22.1", "unit": "%"}, {"measurement": "Triglycerides, Visit 1, Average", "setting": "[2]; Table 2, average of 11 patients, screening, before treatment", "value": 246.1, "unit": "mg/dL"}, {"measurement": "Triglycerides, Visit 12, Average", "setting": "[2]; Table 2, average of 11 patients, week 14", "value": 191.5, "unit": "mg/dL"}, {"measurement": "Triglycerides, Percentage Difference", "setting": "[2]; Table 3, elevated triglycerides (>150 mg/dL)", "value": "−25.7", "unit": "%"}, {"measurement": "Triglycerides, Visit 1, Average", "setting": "[2]; Table 3, elevated triglycerides (>150 mg/dL), average of 7 patients, screening", "value": 326.9, "unit": "mg/dL"}, {"measurement": "Triglycerides, Visit 12, Average", "setting": "[2]; Table 3, elevated triglycerides (>150 mg/dL), average of 7 patients, week 14", "value": 242.9, "unit": "mg/dL"}, {"measurement": "Triglycerides, Visit 1", "setting": "[2]; Table 3, patients with elevated triglycerides (>150 mg/dL), individual patients, screening, before treatment", "value": "150 mg/dL and 601 mg/dL and 188 mg/dL and 180 mg/dL and 530 mg/dL and 442 mg/dL and 197 mg/dL"}, {"measurement": "Triglycerides, Visit 12", "setting": "[2]; Table 3, patients with elevated triglycerides (>150 mg/dL), individual patients, week 14", "value": "166 mg/dL and 268 mg/dL and 160 mg/dL and 305 mg/dL and 286 mg/dL and 302 mg/dL and 213 mg/dL"}, {"measurement": "reduced triglyceride levels by (average)", "setting": "[2]; hypertensive diabetic patients, end of 14 week study", "value": "approximately 22.1%"}, {"measurement": "reduced triglyceride levels by (average)", "setting": "[2]; patients having elevated triglyceride levels (>150 mg/dL) prior to the study", "value": "approximately 25.7%"}]}
